Measured values reported in publication PMC5177629, “Selective Estrogen Receptor Modulators: Cannabinoid Receptor Inverse Agonists with Differential CB1 and CB2 Selectivity” (Frontiers in Pharmacology, 2016).
Like-named read-outs stand apart in the source and are kept apart here.

Assays:
[1] = molecular target: T1, human cannabinoid type-2 receptors (hCB2) (Homo sapiens, UniProt P34972); assay: Competition receptor binding with [3H]CP-55,940, CHO-hCB2 membranes; conditions: for displacement of [3H]CP-55,940 from hCB2Rs: single 1 μM concentration, 0.2 nM [3H]CP-55,940, CHO-hCB2
T1 construct: expressed in transfected cells; host or cells: CHO cells (CHO-hCB2), membranes or intact cells
T1 sequence (P34972 whole entry): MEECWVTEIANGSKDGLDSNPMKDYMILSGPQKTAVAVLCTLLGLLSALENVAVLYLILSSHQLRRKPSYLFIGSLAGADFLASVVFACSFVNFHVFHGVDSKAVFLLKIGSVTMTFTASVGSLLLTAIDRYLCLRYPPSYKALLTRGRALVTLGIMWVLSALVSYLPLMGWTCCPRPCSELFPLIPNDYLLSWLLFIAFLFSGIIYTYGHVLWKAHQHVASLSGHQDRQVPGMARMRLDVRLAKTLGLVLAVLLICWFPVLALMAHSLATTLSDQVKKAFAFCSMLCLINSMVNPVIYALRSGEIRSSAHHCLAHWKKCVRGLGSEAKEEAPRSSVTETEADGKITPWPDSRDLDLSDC
Experimental: Membrane homogenates were prepared for competition receptor binding and [^35S]GTPγS binding studies by using pellets previously frozen of CHO-hCB1 or CHO-hCB2 cells as described in ([Franks et al., 2014]). In short, pellets were thawed on ice, combined in a 40 ml glass Dounce homogenizer and homogenized in 20 ml of cold buffer (50 mM HEPES at pH 7.4, 3 mM MgCl2, and 1 mM EGTA) using 10 strokes. Homogenates were then centrifuged at 40,000 × g for 10 min at 4°C. After discarding the supernatant, pellets were homogenized and centrifuged twice more. Final pellets were re-suspended in ice-cold 50 mM HEPES, pH 7.4, aliquoted and stored at -80°C for future use. Protein concentration was determined the same day, prior to freezing, using BCA^TM Protein Assay (Thermo Fisher Scientific, Waltham, MA, USA).
The final volume of each sample was 1 ml, containing 50 mM Tris-HCl buffer (pH 7.4), 0.05% bovine serum albumin, 5 mM MgCl2, increasing concentrations of non-radioactive competing SERM ligands, and either 100 μg of CHO-hCB1 or 50 μg of CHO-hCB2 membrane homogenates. Non-specific binding was defined by radioactivity remaining in the presence of 1 μM of the non-radioactive CB1/CB2 agonist WIN-55,212-2. Each sample condition was performed in triplicate and allowed to reach equilibrium at room temperature for 90 min. Reactions were terminated by rapid vacuum filtration through Whatman GF/B glass fiber filters (Brandel, Inc.), followed by four 4 ml washes of ice-cold filtration buffer (50 mM Tris at pH 7.4 and 0.05% BSA). Filter punches of individual samples were placed in scintillation vials containing 4 mls of ScintiverseTM BD cocktail scintillation fluid (Fisher Scientific, Pittsburg, PA, USA). Final counts were determined using liquid scintillation spectrophotometry (Tri Carb 2100 TR Liquid Scintillation Analyzer, Packard Instrument Company, Meriden, CT, USA) after overnight incubation.
(§1) Statistical analyses were conducted by utilizing GraphPad Prism v6.0g (GraphPad Software, Inc.; San Diego, CA, USA). IC50 values from competition receptor binding curves were derived by non-linear regression. Experimental IC50 values were converted to Ki values (a measure of receptor affinity) by using the Cheng–Prusoff equation ([Cheng and Prusoff, 1973]). Non-linear regression analysis of concentration-effect curves was also used to determine potency (ED50 or IC50) and efficacy (Emax or Imax) for modulation of GTPγS and adenylyl cyclase activity, respectively. All IC50, EC50, Ki, and Kb values were converted to pEC50, pIC50, pKi, and pKb values in order to permit use of parametric statistical analyses. For all experiments comparing three or more values, an one-way ANOVA was employed, followed by Dunnett’s or Tukey’s post hoc tests. For comparisons of two values, an unpaired t-test was utilized. To determine significant radioligand displacement or modulation of G-protein activity compared to basal levels, a one-sample t-test was employed.
For initial comparison of potential SERM binding to CBRs, 14 commercially available compounds from 5 structurally distinct classes (Figure 1) were subjected to a radioligand binding screen (Figure 2).

[2] = molecular target: T1, human cannabinoid type-2 receptors (hCB2); assay: Antagonism of CP-55,940 inhibition of adenylyl cyclase, intact CHO-hCB2 cells; format: cell-based; conditions: for IMAX of CP-55,940 after pre-incubation with the drug / type of antagonism at hCB2Rs: CHO-hCB2 cells; for IMAX of CP-55,940 after pre-incubation with the drug: pre-incubation 30 min: OSP, NAF 10 μM, RAL, BAZ 2 μM, AM-630 1 μM; for type of antagonism at hCB2Rs: CP-55,940 inhibition of adenylyl cyclase
Experimental: Briefly, cells cultured between passages 4 and 15 were seeded into 24-well plates at a concentration of 6.5 million cells per plate and incubated overnight in a humidified incubator maintained at 37°C and 5% CO2. Growth media was removed the next day and replaced with media containing […] [^3H]adenine, 0.9g/L NaCl, and 0.5 mM isobutyl-methyl-xanthine (IBMX) for 2–3 h. Radioactive media was then removed and each well treated with 0.5 ml of varying concentrations of SERM compounds in a Krebs-Ringer-HEPES solution (10 mM HEPES, 110 mM NaCl, 25 mM Glucose, 55 mM Sucrose, 5 mM KCl, 1 mM MgCl2, 1.8 mM CaCl2, pH 7.4) containing 0.5 mM IBMX and 10 μM forskolin. Plates were then floated in a 37°C water bath for 15 min before reactions were terminated by addition of 50 μL of 2.2 N HCl to each well.
Reactions were then terminated by adding 50 μL of 2.2 N HCl to each well. [^3H]cAMP was isolated using alumina column chromatography and radioactivity quantified following addition of 10 mls of scintiverseTM BD cocktail scintillation fluid (Fisher Scientific, Pittsburg, PA, USA) by liquid scintillation spectrophotometry (Tri Carb 2100 TR Liquid Scintillation Analyzer, Packard Instrument Company, Meriden, CT, USA).
as §1, with “Experimental IC50 values were converted to Ki values (a measure of receptor affinity) by using the Cheng–Prusoff equation ([Cheng and Prusoff, 1973]).” left out
IC50 and Kb values were converted to pIC50 and pKb values (pIC50 = -Log[IC50] or pKb = -Log[Kb], respectively) to allow use of parametric statistics for comparison.

[3] = Ki, [3H]CP-55,940 Binding CHO-hCB2, CHO-hCB2 membranes, Cheng-Prusoff from IC50

Row | Ki ([1]; CHO-hCB2 membranes, read-out: affinity for hCB2Rs (Ki)) [nM] | Kb ([2]; intact CHO-hCB2 cells, mean ± SEM, read-out: pKb, CHO-hCB2 (converted)) [nM] | Compound | Ki [1, 3] [nM] | Ki ([1]; affinity for hCB2Rs (Ki), CHO-hCB2 membranes) [nM] | Kb [2] [nM] | IMAX of CP-55,940 after pre-incubation with the drug [2] | type of antagonism at hCB2Rs [2] | Ki ([1]; pKi, [3H]CP-55,940 Binding CHO-hCB2) [nM] | displacement of [3H]CP-55,940 from hCB2Rs [1] [%] | Ki ([1]; pKi, [3H]CP-55,940 Binding CHO-hCB2, CHO-hCB2 membranes, mean ± SEM) [nM] | Kb ([2]; read-out: Kb (antagonist dissociation constant), CHO-hCB2) [nM]
1 |  |  | OCCOc1ccc(/C(=C(/CCCl)c2ccccc2)c2ccccc2)cc1 [OSP, ospemifene] | 3720 | 1000 to 4000 | 1260 | 31.7 ± 2.3% | surmountable antagonists |  |  |  | 
2 |  |  | Cc1c(-c2ccc(O)cc2)n(Cc2ccc(OCCN3CCCCCC3)cc2)c2ccc(O)cc12 [BAZ, bazedoxifene] |  |  |  | 28.8 ± 3.0^∗∗ % | insurmountable antagonist | 254 | 73 |  | 
3 | 1000 to 4000 | 337 | COc1ccc2c(c1)CCC(c1ccccc1)=C2c1ccc(OCCN2CCCC2)cc1 [NAF, nafoxidine] | 1300 |  |  | 32.3 ± 2.3% | surmountable antagonists |  |  |  | 
4 |  |  | O=C(c1ccc(OCCN2CCCCC2)cc1)c1c(-c2ccc(O)cc2)sc2cc(O)ccc12 [RAL, raloxifene] | ~200 |  |  | 33.0 ± 1.3% | surmountable antagonists |  | 80 | 240 | 66.5
